# According to ChEMBL document CHEMBL6074667, “Discovery and Optimization of First-in-Class Molecular Glue Degraders of the WIZ Transcription Factor for Fetal Hemoglobin Induction to Treat Sickle Cell Disease” (J Med Chem, 2024):
# Activity calls are given as the source filed them. The calls are words filed in the database; no cut-off is given here.
# What was measured:
# [1] = biological target: T1, Protein cereblon/Protein Wiz (Homo sapiens, UniProt Q96SW2+O95785); test: Molecular glue activity at CRBN/WIZ in human CD34-positive derived primary erythroblast cells assessed as increase in fetal hemoglobin positive cells in CD71+ CD235a+ subpopulation measured after 7 days by flow cytometric analysis relative to control; assay type: cell-based; conditions: time 7.0 day
# Target sequence in this assay (O95785 whole entry, looked up): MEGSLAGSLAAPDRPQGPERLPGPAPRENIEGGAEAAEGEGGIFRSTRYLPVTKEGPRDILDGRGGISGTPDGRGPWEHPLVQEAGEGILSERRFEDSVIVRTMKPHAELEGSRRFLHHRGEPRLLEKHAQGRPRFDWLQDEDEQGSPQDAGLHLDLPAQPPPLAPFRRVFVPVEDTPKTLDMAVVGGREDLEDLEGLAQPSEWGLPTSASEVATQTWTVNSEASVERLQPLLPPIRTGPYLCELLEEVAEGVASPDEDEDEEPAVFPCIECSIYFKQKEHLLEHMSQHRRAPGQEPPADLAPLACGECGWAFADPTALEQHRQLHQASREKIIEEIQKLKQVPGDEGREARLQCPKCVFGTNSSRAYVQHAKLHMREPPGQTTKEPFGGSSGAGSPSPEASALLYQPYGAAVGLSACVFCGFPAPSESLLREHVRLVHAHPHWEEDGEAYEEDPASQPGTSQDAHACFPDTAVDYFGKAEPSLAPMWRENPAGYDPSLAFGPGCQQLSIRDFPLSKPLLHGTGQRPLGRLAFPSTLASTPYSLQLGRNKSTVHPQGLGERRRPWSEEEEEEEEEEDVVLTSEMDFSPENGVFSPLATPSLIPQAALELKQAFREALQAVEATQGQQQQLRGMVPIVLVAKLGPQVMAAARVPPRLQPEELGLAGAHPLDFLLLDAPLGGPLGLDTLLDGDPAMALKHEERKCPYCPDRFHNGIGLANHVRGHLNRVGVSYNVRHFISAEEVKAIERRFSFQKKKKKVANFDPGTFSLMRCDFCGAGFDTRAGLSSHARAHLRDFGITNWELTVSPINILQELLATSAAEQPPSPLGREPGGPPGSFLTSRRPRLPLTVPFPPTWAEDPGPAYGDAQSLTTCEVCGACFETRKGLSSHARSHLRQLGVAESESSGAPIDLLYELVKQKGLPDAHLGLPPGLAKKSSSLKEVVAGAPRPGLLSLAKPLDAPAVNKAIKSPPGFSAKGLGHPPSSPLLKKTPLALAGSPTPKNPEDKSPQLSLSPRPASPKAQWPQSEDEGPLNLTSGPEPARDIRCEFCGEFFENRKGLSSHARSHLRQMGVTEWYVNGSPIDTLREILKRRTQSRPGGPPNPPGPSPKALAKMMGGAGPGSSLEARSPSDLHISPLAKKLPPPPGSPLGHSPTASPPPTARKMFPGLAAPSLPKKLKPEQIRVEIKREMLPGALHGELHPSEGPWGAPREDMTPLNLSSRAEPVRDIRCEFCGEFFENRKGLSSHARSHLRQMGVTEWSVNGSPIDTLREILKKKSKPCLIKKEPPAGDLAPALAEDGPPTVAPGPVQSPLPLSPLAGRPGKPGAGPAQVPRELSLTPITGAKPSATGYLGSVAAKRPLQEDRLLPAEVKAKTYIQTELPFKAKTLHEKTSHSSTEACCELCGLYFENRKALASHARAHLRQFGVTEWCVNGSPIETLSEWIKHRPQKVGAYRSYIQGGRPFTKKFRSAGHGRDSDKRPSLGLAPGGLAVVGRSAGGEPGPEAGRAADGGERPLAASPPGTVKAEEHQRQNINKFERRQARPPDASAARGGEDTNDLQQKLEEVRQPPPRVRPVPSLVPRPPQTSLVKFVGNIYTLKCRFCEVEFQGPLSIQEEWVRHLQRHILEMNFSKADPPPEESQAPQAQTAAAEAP
# Target sequence in this assay (Q96SW2 whole entry, looked up): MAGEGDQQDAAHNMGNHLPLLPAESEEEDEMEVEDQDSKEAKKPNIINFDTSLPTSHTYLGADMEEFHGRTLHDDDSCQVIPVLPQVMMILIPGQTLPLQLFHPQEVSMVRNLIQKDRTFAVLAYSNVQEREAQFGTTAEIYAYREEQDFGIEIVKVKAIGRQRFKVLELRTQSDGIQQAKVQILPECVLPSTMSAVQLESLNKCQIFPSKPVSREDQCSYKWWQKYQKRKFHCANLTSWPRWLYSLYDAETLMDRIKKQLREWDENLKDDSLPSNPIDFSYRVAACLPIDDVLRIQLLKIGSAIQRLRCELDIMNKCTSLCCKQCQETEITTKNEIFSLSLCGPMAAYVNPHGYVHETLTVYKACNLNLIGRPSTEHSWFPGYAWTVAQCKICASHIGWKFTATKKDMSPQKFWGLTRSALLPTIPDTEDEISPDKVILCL
# [2] = biological target: T1, Protein cereblon/Protein Wiz; test: In vivo molecular glue activity at CRBN/WIZ in immunocompromised naive NBSGW mouse xenografted with human CD34 positive HSPC cells assessed as fold increase in Hbf-positive cells in moCD45 negative hCD45negative CD71positive CD235A positive bone marrow cells at 0.01 to 1 mg/kg, po administered once daily for 21 days by staining based analysis; assay type: functional, organism-based; conditions: dose 0.01-1 mg/kg, time 21.0 day
# Target sequence in this assay (O95785 whole entry, looked up): as the sequence (O95785 whole entry, looked up) above
# Target sequence in this assay (Q96SW2 whole entry, looked up): as the sequence (Q96SW2 whole entry, looked up) above
# Cereblon/Ikaros [3] = biological target: T2, Cereblon/Ikaros (Homo sapiens, UniProt Q96SW2+Q13422); test: Molecular glue activity at CRBN/HiBiT-tagged IKZF1 (unknown origin) expressed in human GripTite 293 MSR cells assessed as induction of […] incubated for 20 hrs by Nano-Glo HiBiT-Lytic reagent based luminescence plate reader analysis relative to control; assay type: cell-based; design: concentration or dose not given beside the values
# [4] = biological target: T1, Protein cereblon/Protein Wiz; test: In vivo molecular glue activity at CRBN/WIZ in immunocompromised naive NBSGW mouse xenografted with human CD34 positive HSPC cells assessed as induction of WIZ degradation in peripheral blood human […] B cells administered orally once daily for 21 days by staining based analysis; assay type: functional, organism-based; conditions: route po, time 21.0 day
# Target sequence in this assay (O95785 whole entry, looked up): as the sequence (O95785 whole entry, looked up) above
# Target sequence in this assay (Q96SW2 whole entry, looked up): as the sequence (Q96SW2 whole entry, looked up) above
# [5] = biological target: T3, Protein cereblon/Sal-like protein 4 (Homo sapiens, UniProt Q96SW2+Q9UJQ4); test: Molecular glue activity at CRBN/HiBiT-tagged SALL4 (unknown origin) expressed in human GripTite 293 MSR cells assessed as induction of SALL4 degradation incubated for 20 hrs by Nano-Glo HiBiT-Lytic reagent based luminescence plate reader analysis relative to control; assay type: cell-based; design: concentration or dose not given beside the values
# Target sequence in this assay (Q96SW2 whole entry, looked up): as above
# Target sequence in this assay (Q9UJQ4 whole entry, looked up): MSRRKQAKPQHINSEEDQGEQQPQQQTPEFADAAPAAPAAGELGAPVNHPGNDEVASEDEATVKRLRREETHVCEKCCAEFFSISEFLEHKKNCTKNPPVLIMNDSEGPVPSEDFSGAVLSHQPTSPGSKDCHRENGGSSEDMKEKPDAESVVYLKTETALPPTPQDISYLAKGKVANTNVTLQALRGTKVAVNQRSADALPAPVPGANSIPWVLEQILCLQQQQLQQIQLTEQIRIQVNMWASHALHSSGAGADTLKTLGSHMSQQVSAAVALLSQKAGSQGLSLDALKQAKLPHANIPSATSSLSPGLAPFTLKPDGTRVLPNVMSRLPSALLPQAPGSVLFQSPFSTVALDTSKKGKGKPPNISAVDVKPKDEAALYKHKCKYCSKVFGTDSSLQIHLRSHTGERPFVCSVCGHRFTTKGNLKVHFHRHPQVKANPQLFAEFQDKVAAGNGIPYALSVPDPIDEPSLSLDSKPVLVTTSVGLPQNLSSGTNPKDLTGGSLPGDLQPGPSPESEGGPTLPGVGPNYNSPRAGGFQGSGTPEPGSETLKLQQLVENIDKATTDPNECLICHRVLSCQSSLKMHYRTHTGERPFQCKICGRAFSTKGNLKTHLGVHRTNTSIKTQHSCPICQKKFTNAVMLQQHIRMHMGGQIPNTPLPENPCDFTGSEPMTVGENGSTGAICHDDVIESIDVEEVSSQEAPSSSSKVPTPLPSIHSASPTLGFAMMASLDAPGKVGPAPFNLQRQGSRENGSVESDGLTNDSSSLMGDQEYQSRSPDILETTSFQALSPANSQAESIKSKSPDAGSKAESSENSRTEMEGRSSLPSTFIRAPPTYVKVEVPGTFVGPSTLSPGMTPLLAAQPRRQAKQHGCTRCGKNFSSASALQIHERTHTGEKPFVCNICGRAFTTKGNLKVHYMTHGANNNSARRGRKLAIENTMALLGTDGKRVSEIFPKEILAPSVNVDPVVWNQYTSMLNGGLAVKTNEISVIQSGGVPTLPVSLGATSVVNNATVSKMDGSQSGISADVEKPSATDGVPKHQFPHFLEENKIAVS
# [6] = biological target: T1, Protein cereblon/Protein Wiz; test: Molecular glue activity at CRBN/HiBiT-tagged WIZ (unknown origin) expressed in HEK293T cells assessed as induction of WIZ degradation incubated for 18 hrs by Nano-Glo HiBiT-Lytic reagent based luminescence plate reader analysis relative to control; assay type: cell-based; design: concentration or dose not given beside the values
# Target sequence in this assay (O95785 whole entry, looked up): as the sequence (O95785 whole entry, looked up) above
# Target sequence in this assay (Q96SW2 whole entry, looked up): as the sequence (Q96SW2 whole entry, looked up) above
# [7] = biological target: T1, Protein cereblon/Protein Wiz; test: In vivo molecular glue activity at CRBN/WIZ in immunocompromised naive NBSGW mouse xenografted with human CD34 positive HSPC cells assessed as induction of WIZ degradation in peripheral blood human C19-positive B cells by measuring maximal efficacy at 0.01 to 1 mg/kg, po administered once daily for 21 days by staining based analysis relative to control; assay type: functional, organism-based; conditions: dose 0.01-1 mg/kg, time 21.0 day
# Target sequence in this assay (O95785 whole entry, looked up): as the sequence (O95785 whole entry, looked up) above
# Target sequence in this assay (Q96SW2 whole entry, looked up): as the sequence (Q96SW2 whole entry, looked up) above
# [8] = biological target: T4, Protein cereblon/Eukaryotic peptide chain release factor GTP-binding subunit ERF3A (Homo sapiens, UniProt Q96SW2+P15170); test: Molecular glue activity at CRBN/HiBiT-tagged GSPT1 (unknown origin) expressed in human GripTite 293 MSR cells assessed as induction of GSPT1 degradation incubated for 20 hrs by Nano-Glo HiBiT-Lytic reagent based luminescence plate reader analysis relative to control; assay type: cell-based; design: concentration or dose not given beside the values
# Target sequence in this assay (P15170 whole entry, looked up): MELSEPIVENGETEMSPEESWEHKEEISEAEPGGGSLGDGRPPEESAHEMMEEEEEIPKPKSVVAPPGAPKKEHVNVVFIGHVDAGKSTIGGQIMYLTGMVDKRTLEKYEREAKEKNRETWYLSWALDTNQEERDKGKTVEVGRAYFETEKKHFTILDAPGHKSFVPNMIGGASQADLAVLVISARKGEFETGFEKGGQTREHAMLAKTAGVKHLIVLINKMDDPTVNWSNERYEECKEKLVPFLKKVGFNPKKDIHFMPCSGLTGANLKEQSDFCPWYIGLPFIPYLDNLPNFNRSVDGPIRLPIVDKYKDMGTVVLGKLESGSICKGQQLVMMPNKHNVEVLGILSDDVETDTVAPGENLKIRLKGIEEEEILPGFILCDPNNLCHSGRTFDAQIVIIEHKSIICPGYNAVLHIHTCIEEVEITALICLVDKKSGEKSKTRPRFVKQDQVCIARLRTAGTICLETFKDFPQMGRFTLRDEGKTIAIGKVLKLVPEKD
# Target sequence in this assay (Q96SW2 whole entry, looked up): as the sequence (Q96SW2 whole entry, looked up) above
# [9] = biological target: T1, Protein cereblon/Protein Wiz; test: Molecular glue activity at CRBN/WIZ in human CD34-positive derived primary erythroblast cells assessed as induction of WIZ degradation by measuring maximal efficacy measured after 24 hrs by flow cytometric analysis relative to control; assay type: cell-based
# Target sequence in this assay (O95785 whole entry, looked up): as the sequence (O95785 whole entry, looked up) above
# Target sequence in this assay (Q96SW2 whole entry, looked up): as the sequence (Q96SW2 whole entry, looked up) above
# [10] = biological target: T3, Protein cereblon/Sal-like protein 4; test: Molecular glue activity at CRBN/HiBiT-tagged SALL4 (unknown origin) expressed in human GripTite 293 MSR cells assessed as induction of SALL4 degradation incubated for 20 hrs by Nano-Glo HiBiT-Lytic reagent based luminescence plate reader analysis; assay type: cell-based
# [11] = biological target: T1, Protein cereblon/Protein Wiz; test: Molecular glue activity at CRBN/HiBiT-tagged WIZ (unknown origin) expressed in HEK293T cells assessed as induction of WIZ degradation incubated for 18 hrs by Nano-Glo HiBiT-Lytic reagent based luminescence plate reader analysis; assay type: cell-based
# [12] = biological target: T4, Protein cereblon/Eukaryotic peptide chain release factor GTP-binding subunit ERF3A; test: Molecular glue activity at CRBN/HiBiT-tagged GSPT1 (unknown origin) expressed in human GripTite 293 MSR cells assessed as induction of GSPT1 degradation incubated for 20 hrs by Nano-Glo HiBiT-Lytic reagent based luminescence plate reader analysis; assay type: cell-based
# Cereblon/Ikaros [13] = biological target: T2, Cereblon/Ikaros; test: Molecular glue activity at CRBN/HiBiT-tagged IKZF1 (unknown origin) expressed in human GripTite 293 MSR cells assessed as induction of […] incubated for 20 hrs by Nano-Glo HiBiT-Lytic reagent based luminescence plate reader analysis; assay type: cell-based
# [14] = Clearance in C57BL/6 mouse at 1 mg/kg, iv; assay type: ADME, organism-based; conditions: in vivo
# [15] = Volume of distribution at steady state in C57BL/6 mouse at 1 mg/kg, iv; assay type: ADME, organism-based; conditions: in vivo, read-out: Vdss
# [16] = Solubility of compound in potassium phosphate buffer at pH 6.8 incubated for 16 to 24 hrs by high-throughput Agilent Rapidfire-MS/MS analysis; assay type: physicochemical; conditions: time 16-24 hrs
# [17] = Half-life in C57BL/6 mouse at 1 mg/kg, iv; assay type: ADME, organism-based; conditions: in vivo
# [18] = Intrinsic clearance in rat liver microsomes; assay type: ADME, Microsome; conditions: read-out: CLH
# [19] = Bioavailability last in C57BL/6 mouse; assay type: ADME, organism-based; conditions: in vivo
# [20] = Apparent permeability across apical to basolateral side in low efflux MDCK cells assessed as drug recovery at 10 uM incubated for 2 hrs by LC-MS analysis; assay type: ADME, cell-based, Canis lupus familiaris; conditions: dog, read-out: Drug recovery
# [21] = Protein binding in rat plasma; assay type: ADME, cell-free; conditions: read-out: PPB (converted)
# [22] = Intrinsic clearance in human liver microsomes; assay type: ADME, Microsome; conditions: read-out: CLH
# [23] = Protein binding in human plasma; assay type: ADME, cell-free; conditions: read-out: PPB (converted)
# [24] = biological target: T1, Protein cereblon/Protein Wiz; test: Molecular glue activity at CRBN/WIZ in human CD34-positive derived primary erythroblast assessed as induction fetal hemoglobin by flow cytometric analysis; assay type: cell-based
# [25] = biological target: T1, Protein cereblon/Protein Wiz; test: Molecular glue activity at CRBN/WIZ in human CD34-positive derived primary erythroblast assessed as induction of WIZ degradation by flow cytometric analysis; assay type: cell-based
# [26] = Tmax in C57BL/6 mouse at 3 mg/kg, po or 1 mg/kg, iv; assay type: ADME, organism-based; conditions: in vivo
# [27] = Intrinsic clearance in mouse liver microsomes; assay type: ADME, Microsome; conditions: read-out: CLH
# [28] = AUClast in C57BL/6 mouse at 3 mg/kg, po; assay type: ADME, organism-based; conditions: in vivo
# [29] = Protein binding in mouse plasma; assay type: ADME, cell-free; conditions: read-out: PPB (converted)
# [30] = Apparent permeability across apical to basolateral side in low efflux MDCK cells at 10 uM incubated for 2 hrs by LC-MS analysis; assay type: ADME, cell-based, Canis lupus familiaris; conditions: dog
# [31] = Cmax in C57BL/6 mouse at 3 mg/kg, po; assay type: ADME, organism-based; conditions: in vivo
# [32] = biological target: Protein cereblon/Protein Wiz (Homo sapiens, UniProt O95785+Q96SW2); test: Molecular glue activity at CRBN/WIZ in human CD34-positive derived primary erythroblast cells assessed as increase in fetal hemoglobin positive cells in CD71+ CD235a+ subpopulation measured after 7 days by flow cytometric analysis; assay type: cell-based
# [33] = biological target: T1, Protein cereblon/Protein Wiz; test: Molecular glue activity at CRBN/WIZ in human CD34-positive derived primary erythroblast cells assessed as induction of WIZ degradation measured after 24 hrs by flow cytometric analysis; assay type: cell-based
# [34] = Toxicity in immunocompromised naive NBSGW mouse xenografted with human CD34 positive HSPC cells assessed as effect on body weight at 0.01 to 1 mg/kg, po administered once daily for 21 days; assay type: organism-based; conditions: in vivo, 504 h, dose 0.01-1 mg/kg, time 21 day
SMILES,Activity (Cereblon/Ikaros [3]) [%],Activity [5] [%],Activity [6] [%],Activity [8] [%],DC50 [10] [µM],DC50 [11] [µM],DC50 [12] [µM],DC50 (Cereblon/Ikaros [13]) [µM],other results
CCN1C[C@H](C)C[C@@H](Oc2ccc3c(c2)CN(C2CCC(=O)NC2=O)C3=O)C1 (stereo in doubt; 10) [listing 1 of 2 here],< 10,26,87,< 10,,,,,Activity [1]: 40%; fold change (FC) [2]: 5; Activity [4]: Dose-dependent-effect; Emax [7]: 60%; Emax [9]: 84%
CCN1CCC[C@@H](Oc2ccc3c(c2)CN(C2CCC(=O)NC2=O)C3=O)C1 (some centres not stated),< 10,28,77,< 10,> 50,0.026,> 50,> 50,
CCN1C[C@@H](C)C[C@@H](Oc2ccc3c(c2)CN(C2CCC(=O)NC2=O)C3=O)C1 (mixture of isomers),< 10,32,42,< 10,> 50,> 25,> 50,> 50,
CCN1C[C@H](Oc2ccc3c(c2)CN(C2CCC(=O)NC2=O)C3=O)CC[C@H]1C (some centres not stated),< 10,27,60,< 10,> 50,0.105,> 50,> 50,
C[C@@H](Oc1ccc2c(c1)CN(C1CCC(=O)NC1=O)C2=O)[C@H]1CCCCN1C (some centres not stated),< 11,58,93,< 11,,,,,"clearance [14]: 28 mL/min/kg; Vd [15]: 2.9 L/kg; solubility [16]: 640 µM; half-life [17]: 1.9 h; microsomal CLint [18]: < 25 µL/min/mg; bioavailability [19]: 2.7%; recovery at 2 h, 10 µM [20]: 66%; fraction unbound [21]: 0.58; microsomal CLint [22]: < 25 µL/min/mg; fraction unbound [23]: 0.69; Activity [24]: Active; Activity [25]: Active; Tmax [26]: 3 h; microsomal CLint [27]: < 25 µL/min/mg; AUC(0-t) [28]: 0.115 µM·h; fraction unbound [29]: > 0.8; Papp A→B at 2 h, 10 µM [30]: 0.37 ×10⁻⁶ cm/s; Cmax [31]: 24 nM"
CCN1C[C@H](C)C[C@@H](Oc2ccc3c(c2)CN(C2CCC(=O)NC2=O)C3=O)C1 (mixture of isomers) [listing 1 of 2 here],< 10,15,78,< 10,,,,,
CCN1CCC2(CC2)[C@@H](Oc2ccc3c(c2)CN(C2CCC(=O)NC2=O)C3=O)C1 (some centres not stated),< 10,11,82,< 10,> 50,0.008,> 50,> 50,
CCN1C[C@H](C)C[C@@H](Oc2ccc3c(c2)CN(C2CCC(=O)NC2=O)C3=O)C1 (mixture of isomers) [listing 2 of 2 here],,,,,> 50,0.013,> 50,> 50,
CCN1C[C@H](C)C[C@@H](Oc2ccc3c(c2)CN(C2CCC(=O)NC2=O)C3=O)C1 (stereo in doubt; 10) [listing 2 of 2 here],,,,,,0.003,,,"clearance [14]: 29 mL/min/kg; EC50 [32]: 0.04 µM; Vd [15]: 2.8 L/kg; solubility [16]: 380 µM; half-life [17]: 2.2 h; microsomal CLint [18]: < 10 µL/min/mg; bioavailability [19]: 23%; DC50 [33]: 0.002 µM; recovery at 2 h, 10 µM [20]: 84%; fraction unbound [21]: > 0.8; microsomal CLint [22]: < 10 µL/min/mg; fraction unbound [23]: 0.76; Tmax [26]: 1.7 h; microsomal CLint [27]: < 10 µL/min/mg; AUC(0-t) [28]: 1.12 µM·h; fraction unbound [29]: > 0.8; Papp A→B at 2 h, 10 µM [30]: 0.5 ×10⁻⁶ cm/s; Activity [34]: Non-toxic; Cmax [31]: 224 nM"
CCN1CCC[C@H](Oc2ccc3c(c2)CN(C2CCC(=O)NC2=O)C3=O)C1 (some centres not stated),< 10,27,12,< 10,> 50,> 25,> 50,> 50,
CCN1C[C@H](Oc2ccc3c(c2)CN(C2CCC(=O)NC2=O)C3=O)CC[C@@H]1C (some centres not stated),10,32,88,< 10,> 50,0.003,> 50,> 50,"Activity [1]: 36%; clearance [14]: 29 mL/min/kg; EC50 [32]: 0.078 µM; Vd [15]: 4.4 L/kg; solubility [16]: 480 µM; half-life [17]: 3.2 h; microsomal CLint [18]: < 25 µL/min/mg; bioavailability [19]: 8.5%; DC50 [33]: 0.003 µM; recovery at 2 h, 10 µM [20]: 75%; fraction unbound [21]: 0.71; microsomal CLint [22]: < 25 µL/min/mg; fraction unbound [23]: 0.72; Emax [9]: 84%; Tmax [26]: 1 h; microsomal CLint [27]: < 25 µL/min/mg; AUC(0-t) [28]: 0.377 µM·h; fraction unbound [29]: 0.77; Papp A→B at 2 h, 10 µM [30]: 0.3 ×10⁻⁶ cm/s; Cmax [31]: 118 nM"
